In ChEMBL document CHEMBL5120776, “Asymmetric Total Synthesis of Griseofamine B and Its Three Stereoisomers” (2022):

What was measured:
Format in all cases: functional
Staphylococcus aureus [1] = test: Antibacterial activity against Staphylococcus aureus ATCC 29213 assessed as inhibition of bacterial growth incubated for 18 hrs by two-fold dilution assay
Staphylococcus aureus [2] = test: Antibacterial activity against Staphylococcus aureus […] assessed as inhibition of bacterial growth incubated for 18 hrs by two-fold dilution assay
Staphylococcus aureus [3] = test: Antibacterial activity against methicillin-resistant Staphylococcus aureus ATCC 33591 assessed as inhibition of bacterial growth incubated for 18 hrs by two-fold dilution assay
Staphylococcus aureus [4] = test: Antibacterial activity against methicillin-resistant Staphylococcus aureus […] assessed as inhibition of bacterial growth incubated for 18 hrs by two-fold dilution assay
[5] = test system: Staphylococcus epidermidis; test: Antibacterial activity against Staphylococcus epidermidis ATCC 12228 assessed as inhibition of bacterial growth incubated for 18 hrs by two-fold dilution assay
[6] = test system: Staphylococcus epidermidis; test: Antibacterial activity against methicillin-resistant Staphylococcus epidermidis clinical isolate 16-5 assessed as inhibition of bacterial growth incubated for 18 hrs by two-fold dilution assay
Enterococcus faecalis [7] = test: Antibacterial activity against Enterococcus faecalis ATCC 29212 assessed as inhibition of bacterial growth incubated for 18 hrs by two-fold dilution assay
Enterococcus faecalis [8] = test: Antibacterial activity against vancomycin-resistant Enterococcus faecalis ATCC 51299 assessed as inhibition of bacterial growth incubated for 18 hrs by two-fold dilution assay
Escherichia coli = test: Antibacterial activity against Escherichia coli ATCC 25922 assessed as inhibition of bacterial growth incubated for 18 hrs by two-fold dilution assay
Enterococcus faecium [9] = test: Antibacterial activity against vancomycin-resistant Enterococcus faecium ATCC 700221 assessed as inhibition of bacterial growth incubated for 18 hrs by two-fold dilution assay
Enterococcus faecium [10] = test: Antibacterial activity against Enterococcus faecium clinical isolate 16-5 assessed as inhibition of bacterial growth incubated for 18 hrs by two-fold dilution assay

Measured: MIC

CC(C)=C[C@H]1c2cccc3[nH]cc(c23)C[C@H]2C(=O)/C(=C(\C)O)C(=O)N21
≥ 64 µg/mL: all assays above

CC(C)=C[C@@H]1c2cccc3[nH]cc(c23)C[C@@H]2C(=O)/C(=C(\C)O)C(=O)N21
≥ 64 µg/mL: all assays above

CC(C)=C[C@H]1c2cccc3[nH]cc(c23)C[C@@H]2C(=O)/C(=C(\C)O)C(=O)N21
≥ 64 µg/mL: all assays above

CC(C)=C[C@@H]1c2cccc3[nH]cc(c23)C[C@H]2C(=O)/C(=C(\C)O)C(=O)N12
≥ 64 µg/mL: all assays above
